# Experimental data published in article PMC4970648, “Studies on 16α-Hydroxylation of Steroid Molecules and Regioselective Binding Mode in Homology-Modeled Cytochrome P450-2C11” (International Journal of Medicinal Chemistry, 2010).
# Where two headings read alike, the source gives them in different places.
# Target: [3H]PROG 16α-hydroxylating activity by male rat liver microsomes (CYP2C11) (Rattus norvegicus, UniProt P08683)
# Experiment: Inhibition of [3H]progesterone 16α-hydroxylation by adult male rat liver microsomes
# Details: for [3H]PROG16α-hydroxylation (IC40), given as bound in μM: 40% inhibition not reached at 10 μM of unlabeled steroid
# Protocol: Approximately 95-day-old male Wistar rats, castrated on the 70th day after birth, were used. The liver microsomes were prepared as previously described. The experiments were performed according to instrumental guidelines for the care and use of laboratory animals.
# The metabolism by rat liver microsomes were examined, according to our previously described procedure. Briefly, the microsomal suspension (400–600 μg of protein/2.2 mL, total volume of the reaction mixture) was preincubated with [3H]PROG (20 nM) under the absence or presence of an unlabeled steroid (0.01–10 μM) at 36°C for 30 min. […] After the incubation, two identical samples were mixed and extracted with toluene. The toluene-extractable [3H]PROG metabolites (more than 90%) were isolated by various paper chromatographic systems and then identified by recrysallization method. Other miscellaneous procedures are described in our previous papers.
# [1] = molar concentration of unlabeled steroid causing 40% inhibition, [3H]PROG 20 nM, unlabeled steroid 0.01–10 μM, male rat liver microsomes
# [3H]PROG 16α-hydroxylating activity by male rat liver microsomes (CYP2C11), sequence (P08683 whole entry): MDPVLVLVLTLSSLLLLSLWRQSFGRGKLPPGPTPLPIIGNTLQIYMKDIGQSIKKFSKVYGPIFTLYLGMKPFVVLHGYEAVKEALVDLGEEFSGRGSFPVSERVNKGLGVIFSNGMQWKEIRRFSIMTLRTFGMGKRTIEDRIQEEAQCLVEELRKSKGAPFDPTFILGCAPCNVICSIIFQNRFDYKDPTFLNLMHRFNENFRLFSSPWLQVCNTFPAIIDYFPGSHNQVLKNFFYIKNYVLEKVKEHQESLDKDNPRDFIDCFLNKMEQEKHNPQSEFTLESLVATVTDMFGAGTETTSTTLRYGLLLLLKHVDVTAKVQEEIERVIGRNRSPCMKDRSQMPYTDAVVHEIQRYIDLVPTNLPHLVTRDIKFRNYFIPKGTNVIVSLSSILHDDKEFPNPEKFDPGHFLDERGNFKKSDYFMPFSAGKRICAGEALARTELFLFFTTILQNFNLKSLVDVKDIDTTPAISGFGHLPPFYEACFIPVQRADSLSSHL
Compound,"[3H]PROG16α-hydroxylation (IC40), given as bound in μM (male rat liver microsomes)",[3H]PROG16α-hydroxylation (IC40) [1] [nM],further results
3β-Pregnan-3-one [compound 37],>10 µM,–,–
"CC(=O)[C@H]1CC[C@H]2[C@@H]3CCC4=CC(=O)CC[C@]4(C)[C@H]3CC[C@]12C [compound 1, Progesterone]",–,755,–
"CC(=O)[C@H]1CC[C@H]2[C@@H]3CCC4=C[C@@H](O)CC[C@]4(C)[C@H]3CC[C@]12C [compound 2, 3β-Hydroxyprogesterone]",–,255,–
"CC(=O)[C@H]1CC[C@H]2[C@@H]3C[C@@H](O)C4=CC(=O)CC[C@]4(C)[C@H]3CC[C@]12C [compound 3, 6β-Hydroxyprogesterone]",>10 μM^c,–,–
"CC(=O)O[C@@H]1C[C@H]2[C@@H]3CC[C@H](C(C)=O)[C@@]3(C)CC[C@@H]2[C@@]2(C)CCC(=O)C=C12 [compound 4, 6β-Acetoxyprogesterone]",–,740,–
"CC(=O)[C@H]1CC[C@H]2[C@@H]3CCC4=CC(=O)CC[C@]4(C)[C@H]3[C@H](O)C[C@]12C [compound 5, 11α-Hydroxyprogesterone]",>10 µM,–,–
"CC(=O)O[C@@H]1C[C@]2(C)[C@@H](C(C)=O)CC[C@H]2[C@@H]2CCC3=CC(=O)CC[C@]3(C)[C@H]21 [compound 6, 11α-Acetoxyprogesterone]",>10 µM,–,–
"CC(=O)[C@H]1CC[C@H]2[C@@H]3CCC4=CC(=O)CC[C@]4(C)[C@H]3[C@@H](O)C[C@]12C [compound 7, 11β-Hydroxyprogesterone]",>10 µM,–,–
"CC(=O)[C@H]1[C@H](O)C[C@H]2[C@@H]3CCC4=CC(=O)CC[C@]4(C)[C@H]3CC[C@@]21C [compound 8, 16α-Hydroxyprogesterone]",>10 µM,–,–
"CC(=O)[C@H]1[C@H](C)C[C@H]2[C@@H]3CCC4=CC(=O)CC[C@]4(C)[C@H]3CC[C@@]21C [compound 9, 16α-Methylprogesterone]",>10 μM ^d,–,–
"CC(=O)[C@H]1CC[C@H]2[C@@H]3CCC4=CC(=O)CC[C@]4(C)[C@H]3CC[C@]12CO [compound 10, 18-Hydroxyprogesterone]",>10 µM,–,–
"CC(=O)[C@H]1CC[C@H]2[C@@H]3CCC4=CC(=O)CC[C@]4(CO)[C@H]3CC[C@]12C [compound 11, 19-Hydroxyprogesterone]",>10 µM,–,–
"CC(=O)[C@H]1CC[C@H]2[C@@H]3CCC4=CC(=O)CC[C@@H]4[C@H]3CC[C@]12C [compound 12, 19-Norprogesterone]",>10 µM,–,–
"C[C@H](O)[C@H]1CC[C@H]2[C@@H]3CCC4=CC(=O)CC[C@]4(C)[C@H]3CC[C@]12C [compound 13, 20α-Hydroxyprogesterone]",>10 µM,–,–
"C[C@]12CC[C@H]3[C@@H](CCC4=CC(=O)CC[C@@]43C)[C@@H]1CC[C@@H]2C(=O)CO [compound 14, 21-Hydroxyprogesterone]",>10 µM,–,–
"CC(=O)OCC(=O)C1CCC2C3CCC4=CC(=O)CCC4(C)C3CCC12C (stereo not shown) [compound 15, 21-Acetoxyprogesterone]",>10 µM,–,–
"C[C@]12C[C@H](O)[C@H]3[C@@H](CCC4=CC(=O)CC[C@@]43C)[C@@H]1CC[C@@H]2C(=O)CO [compound 16, Corticosterone]",>10 µM,–,–
"CC(=O)[C@H]1CC[C@H]2[C@@H]3CC=C4C[C@@H](O)CC[C@]4(C)[C@H]3CC[C@]12C [compound 17, Pregnenolone]",–,142,–
"CC(=O)O[C@H]1CC[C@@]2(C)C(=CC[C@H]3[C@@H]4CC[C@H](C(C)=O)[C@@]4(C)CC[C@@H]32)C1 [compound 18, Pregnenolone-3-acetate]",–,800,–
"CC(=O)C1CCC2C3CC=C4CC(OS(=O)(=O)O)CCC4(C)C3CCC12C (stereo not shown) [compound 19, Pregnenolone-3-sulfate]",–,195,–
"C[C@H](O)[C@H]1CC[C@H]2[C@@H]3CC=C4C[C@@H](O)CC[C@]4(C)[C@H]3CC[C@]12C [compound 21, 20α-Hydroxypregnenolone]",>10 µM,–,–
"C[C@]12CC[C@H]3[C@@H](CC=C4C[C@@H](O)CC[C@@]43C)[C@@H]1CC[C@@H]2C(=O)CO [compound 22, 21-Hydroxypregnenolone]",–,462,–
"CC(=O)OCC(=O)[C@H]1CC[C@H]2[C@@H]3CC=C4C[C@@H](O)CC[C@]4(C)[C@H]3CC[C@]12C [compound 23, 21-Acetoxypregnenolone]",–,600,–

Compound,"[3H]PROG16α-hydroxylation (IC40), given as bound in μM (male rat liver microsomes)",[3H]PROG16α-hydroxylation (IC40) [1] [nM],further results
"C[C@]12CC[C@H]3[C@@H](CC=C4C[C@@H](O)CC[C@@]43C)[C@@H]1CC[C@@H]2C(=O)COS(=O)(=O)O [compound 24, 21-Sulfatepregnenolone]",>10 µM,–,–
"CC[C@H]1CC[C@H]2[C@@H]3CC=C4C[C@@H](O)CC[C@]4(C)[C@H]3CC[C@]12C [compound 25, 5-Pregnen-3β-ol]",>10 µM,–,–
"CC(C)CCC[C@@H](C)[C@H]1CC[C@H]2[C@@H]3CC=C4C[C@@H](O)CC[C@]4(C)[C@H]3CC[C@]12C [compound 26, Cholesterol]",>10 µM,–,–
"CC(=O)[C@H]1CC[C@H]2[C@@H]3CC[C@H]4CC(=O)CC[C@]4(C)[C@H]3CC[C@]12C [compound 27, 5α-Pregnan-3,20-dione]",–,720,–
"CC(=O)[C@H]1CC[C@H]2[C@@H]3CC[C@@H]4CC(=O)CC[C@]4(C)[C@H]3CC[C@]12C [compound 28, 5β-Pregnan-3,20-dione]",–,395,–
"CC(=O)[C@H]1CC[C@H]2[C@@H]3CC[C@H]4C[C@H](O)CC[C@]4(C)[C@H]3CC[C@]12C [compound 29, 3α-Hydroxy-5 α -pregnan-20-one]",–,62,–
"CC(=O)O[C@@H]1CC[C@@]2(C)[C@@H](CC[C@@H]3[C@@H]2CC[C@]2(C)[C@@H](C(C)=O)CC[C@@H]32)C1 [compound 30, 3α-Acetoxy-5 α -pregnan-20-one]",–,410,–
"CC(=O)[C@H]1CC[C@H]2[C@@H]3CC[C@H]4C[C@H](OS(=O)(=O)O)CC[C@]4(C)[C@H]3CC[C@]12C [compound 31, 3α-Sulfate-5 α -pregnan-20-one]",>10 µM,–,–
"CC(=O)[C@H]1CC[C@H]2[C@@H]3CC[C@H]4C[C@@H](O)CC[C@]4(C)[C@H]3CC[C@]12C [compound 32, 3β-Hydroxy-5 α -pregnan-20-one]",–,225,–
"CC(=O)[C@H]1CC[C@H]2[C@@H]3CC[C@@H]4C[C@H](O)CC[C@]4(C)[C@H]3CC[C@]12C [compound 33, 3α-Hydroxy-5 β -pregnan-20-one]",–,24,observed inhibitory potency index against [3H]PROG 16α-hydroxylation (IC40 of progesterone 1 relative to IC40 of 33): 31.46
"CC(=O)[C@H]1CC[C@H]2[C@@H]3CC[C@@H]4C[C@@H](O)CC[C@]4(C)[C@H]3CC[C@]12C [compound 34, 3β-Hydroxy-5 β -pregnan-20-one]",–,170,–
"CC(=O)[C@H]1CC[C@H]2[C@@H]3CC[C@H]4C[C@H](O)CC[C@]4(C)[C@H]3[C@@H](O)C[C@]12C [compound 35, 3α,11β-Dihydroxy-5α-pregnan-20-one]",–,150,–
"CC(=O)[C@H]1[C@H](O)C[C@H]2[C@@H]3CC[C@H]4C[C@@H](O)CC[C@]4(C)[C@H]3CC[C@@]21C [compound 36, 3β,16α-Dihydroxy-5α-pregnan-20-one]",–,–,[3H]PROG16α-hydroxylation (IC40): 1150 nM
"C[C@]12CCC(=O)C=C1CC[C@@H]1[C@@H]2CC[C@]2(C)C(=O)CC[C@@H]12 [compound 38, 4-Androsten-3,17-dione]",–,1000,–
"C[C@]12CC[C@H]3[C@@H](CCC4=CC(=O)CC[C@@]43C)[C@@H]1CC[C@@H]2C(=O)O [compound 39, 4-Androsten-3-one; 17-β-carboxylaic acid]",>10 μM^e,–,–
"COC(=O)[C@H]1CC[C@H]2[C@@H]3CCC4=CC(=O)CC[C@]4(C)[C@H]3CC[C@]12C [compound 40, 4-Androsten-3-one;17-β-carboxylaic acid methyl ester]",–,801,–
"C[C@]12CC[C@H]3[C@@H](CCC4=CC(=O)CC[C@@]43C)[C@@H]1CC[C@@H]2O [compound 41, Testosterone]",–,1450,–
"CC(=O)O[C@H]1CC[C@H]2[C@@H]3CCC4=CC(=O)CC[C@]4(C)[C@H]3CC[C@]12C [compound 42, 17β-Acetoxytestosterone]",>10 µM,–,–
"C[C@]12CC[C@H](O)CC1=CC[C@@H]1[C@@H]2CC[C@]2(C)C(=O)CC[C@@H]12 [compound 43, Dehydroepiandrosterone]",–,680,–
"C[C@]12CC[C@H](OS(=O)(=O)O)CC1=CC[C@@H]1[C@@H]2CC[C@]2(C)C(=O)CC[C@@H]12 [compound 44, Dehydroepiandrosterone-3-sulfate]",>10 µM,–,–
"C[C@]12CC[C@H]3[C@@H](CC=C4C[C@@H](O)CC[C@@]43C)[C@@H]1CC[C@@H]2O [compound 45, 5-Androstenediol]",–,640,–
"C[C@@]12CCC[C@H]1[C@@H]1CC[C@H]3CCCC[C@]3(C)[C@H]1CC2 [compound 46, 5α-Androstane]",>10 µM,–,–
